Experimental data as given in US20070293543A1, “THRESHOLD BLOOD OMEPRAZOLE CONCENTRATION IS 50 NG/ML FOR THE MAINTENANCE OF INTRAGASTRIC pH OF AT LEAST 4.0 AFTER ORAL DOSING WITH CMA-OMEPRAZOLE, AGN 201904-Z” (priority 2006, published 2007).

Tested on: intragastric pH
Experiment: 24-hr intragastric pH monitoring (pharmacodynamics)
Format: in vivo, healthy male subjects
Details: oral once-daily dosing; for % time intragastric pH ≧4.0: 24-hr monitoring, p<0.0001 vs esomeprazole, dose level and day not stated
Protocol: Methods: Forty healthy male subjects received 240, 480, and 640 mg AGN 201904-Z or 40 mg esomeprazole orally once-daily for 5 days in a open-label, randomized, 4-way cross-over study. These doses were estimated to deliver molar equivalent omeprazole doses of 53%, 107%, and 143% of the esomeprazole dose, respectively. Pharmacokinetic (PK) blood samples were collected at 8 timepoints following the 1st and 5th dose of each treatment. Pharmacodynamics (PD) were evaluated via 24-hr intragastric ph monitoring before treatment and after the 1st and 5th doses of each treatment. Empirical PK/PD models were constructed for AGN 201904-Z data by regressing the % time that intragastric pH ≧4.0 during a 24-hr dosing period against the duration of time that blood omeprazole concentrations were greater than 8 different concentrations over the same 24-hr period. The possible threshold concentrations evaluated ranged from 10 to 400 ng/mL. The concentration that provided the best-fit was designated the threshold concentration. The best-fit concentration and model was chosen based on the WSSR, R^2, visual inspection, and AIC value. Results: Among the possible omeprazole threshold concentrations evaluated, 50 ng/mL was the best-fit concentration value in all of the models evaluated.

Compound	% time intragastric pH ≧4.0	maintaining 24-hour intragastric pH ≧4.0, comparison with esomeprazole (healthy male subjects)
COc1ccc2c(c1)nc([S+]([O-])Cc1ncc(C)c(OC)c1C)n2S(=O)(=O)c1ccc(OCC(=O)[O-])cc1.[Na+] (stereo not drawn) [AGN 201904-Z, sodium {4-[5-Methoxy-2-(4-methoxy-3,5-dimethyl-pyridin-2-ylmethanesulfinyl)-benzoimidazole-1-sulfonyl]-phenoxy}-acetate]	80.1 % of 24-hr	more effective than esomeprazole
COc1ccc2nc([S@@+]([O-])Cc3ncc(C)c(OC)c3C)[nH]c2c1 [esomeprazole, reference compound]	68.4 % of 24-hr	
